These results are taken from publication PMC2263054, “Functional evolution of the vitamin D and pregnane X receptors” (BMC Evolutionary Biology, 2007).

Data set [1] concerns the target T1, Mouse VDR (Mus musculus, UniProt P48281).
T1 sequence (P48281 1-422): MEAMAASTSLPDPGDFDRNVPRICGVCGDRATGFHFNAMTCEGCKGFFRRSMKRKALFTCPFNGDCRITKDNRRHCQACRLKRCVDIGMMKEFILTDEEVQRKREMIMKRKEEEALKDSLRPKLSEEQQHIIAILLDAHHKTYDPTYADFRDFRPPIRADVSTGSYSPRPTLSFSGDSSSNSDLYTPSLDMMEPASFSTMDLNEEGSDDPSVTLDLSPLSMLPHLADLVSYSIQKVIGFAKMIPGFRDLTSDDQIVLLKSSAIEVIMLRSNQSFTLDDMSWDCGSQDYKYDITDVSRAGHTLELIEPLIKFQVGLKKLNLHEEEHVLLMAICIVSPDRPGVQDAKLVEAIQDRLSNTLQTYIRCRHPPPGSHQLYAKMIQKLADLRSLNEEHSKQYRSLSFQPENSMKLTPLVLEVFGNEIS
Nature of the data set: luciferase reporter transactivation assay in HepG2-NTCP cells, full-length mVDR with CYP3A4-PXRE-Luc. The settings on record: HepG2-NTCP cells, luciferase reporter; unit not given; also cells saying No effect. (Reporter assays use an easily measured gene product as a stand-in for the process of interest.)

Data set [2] deals with β-actin. Nature of the data set: zebrafish in vivo liver transcription, semi-quantitative RT-PCR: β-actin. The procedure: (§1) Adult zebrafish were purchased from a commercial fish supplier and acclimatized for at least two-weeks in 20 L tanks with flow-through freshwater at 22°C. A single dose of 15 mg/kg of 5α-cyprinol, 5β-cyprinol 27-sulfate, 5α-scymnol or 5β-scymnol-27 sulfate, dissolved in saline, was injected intraperitoneally. A control group was injected with saline. After 48 hr, the animals were decapitated and livers of three fish (n = 5 each group) were removed, pooled and weighed, totalizing 15 fish per group. Fish were not fed throughout the experimental period. […].
(§2) To study the transcription of CYP3C1, ABCB5, PXR, GAPDH and β-actin genes in zebrafish, initial fragments of these genes were identified (Genbank: AW202769, Genbank: BQ284593, Genbank: AAM22215, Genbank: BC083506, Genbank: AF057040, respectively). The PCR primers for CYP3C1 were designed using MacVector Software and primers for MDR1 were designed using Primer 3 Software (Whitehead Institute for Biomedical Research; [75]). Primer pairs for amplifying CYP3C1 fragment were 5'-[…]-3' (sense) and 5'-[…]-3' (antisense) and for amplifying ABCB5 were 5'-[…]-3' (sense) and 5'-[…]-3' (antisense). The PCR primers for PXR were 5'-[…]-3' (sense) and 5'-[…]-3' (antisense), for amplifying GAPDH were 5'-[…]-3' (sense) and 5' […] 3' (antisense) and for β-actin were 5'-[…]-3' (sense) and 5'-[…]-3' (antisense). RNA was isolated using Trizol (Invitrogen) according to manufacturer's instructions. Purity and concentration of RNA of each sample were verified at 260 nm. The RNA integrity was checked by non-denaturing gel electrophoresis using 1 μg of total RNA in each sample.
(§3) Two micrograms of total RNA were reversed transcribed using Ominiscript RT Kit (Qiagen, Valencia, CA, USA). cDNA concentration was checked at 260 nm, and the amount adjusted to 1 μg to perform semi-quantitative RT-PCR. The expected size of the PXR, Cyp3C1, abcb5, GAPDH and β-actin fragments were 577, 477, 218, 234 and 550 bp, respectively. Biotools DNA polymerase (Biotools B&M Labs, S.A., Madrid, Spain) kit was used for the PCR reaction using a thermocycler Personal Mastercycler (Eppendörf) with the following PCR program: 5 cycles of 94°C for 5 s, 72°C for 35 s; 5 cycles of 94°C for 5 s, 70°C for 10 s, 72°C for 35 s; and 23, 24, 35, 15 and 24 cycles (PXR, Cyp3C1, abcb5, GAPDH and β-actin, respectively) of 94°C for 5 s, 61, 54, 48, 49 and 61°C for 10 s (PXR, Cyp3C1, abcb5, GAPDH and β-actin, respectively), and 72°C for 35 s. The PXR, CYP3C1, ABCB5 and GAPDH transcript levels were quantified using Gel-Quant™ (Multiplexed Biotechologies) and β-actin was used to normalize the data. The Shapiro-Wilk W test was used to evaluate normality. When data were parametric the analysis was performed using Student t test; otherwise Mann Whitney U test was applied. […]

For data set [3], the system named is PXR. The data set is described as follows: zebrafish in vivo liver transcription, semi-quantitative RT-PCR: PXR. The procedure:
as §1, §2, §3

Data set [4] concerns CYP3C1. Nature of the data set: zebrafish in vivo liver transcription, semi-quantitative RT-PCR: CYP3C1. The procedure:
as §1, §2, §3

Data set [5] deals with 6β- and 12α-hydroxylation of testosterone. The data set is described as follows: testosterone hydroxylation (HPLC) in African clawed frog primary hepatocytes. The class given is cell-based, Xenopus laevis. The conditions noted are these: relative to vehicle control. How it is done:
Xenopus laevis primary hepatocytes were cultured by a protocol adapted from a published report. Frogs are sacrificed with MS-222, rinsed with 70% ethanol, and the liver lobes perfused via the heart, initially with 375 mL Barth (88 mM NaCl, 1 mM K2SO4, and 10 mM HEPES-NaOH, pH 7.4) containing 0.82 mM MgCl2 and 0.1 mg/mL heparin, and then with 25 mL Barth containing 2.22 mM Ca(NO3)2, 2.74 mM CaCl2, and 200 U/mL type I collagenase (Worthington Chemicals, Lakewood, NJ). Livers are minced to fine pieces in 12.5 mL Barth-collagenase solution and then incubated for 10 min at room temperature, periodically disaggregating the liver pieces with a Pasteur pipette. The liver cells are then placed on a shaking incubator for 5 min at room temperature, followed by another 10 min of periodic pipetting to complete disaggregation. Cells are then filtered through a 130 μm Nitex nylon mesh (Fisher Scientific), following by spinning at 500 g for 5 min at 4°C. The supernatant is then aspirated and diluted to 50 mL with Barth plus MgCl2 and then allowed to settle while cooled in ice for 30 min. The supernatant is removed, and the cellular pellet is resuspended and subjected to one more round of nylon mesh filtration, dilution in Barth plus MgCl2, and settling while cooled in ice. The supernatant is removed and the remaining cells are washed once with Barth plus MgCl2 and then centrifuged at 500 g for 5 min at 4°C. The cells are then resuspended in 0.6 × Coon's Modified Ham's F-12 medium (Invitrogen) supplemented with 0.1 × Barth (88 mM NaCl, 1 mM K2SO4, 10 mM HEPES), 200 U/mL penicillin G, 100 μg/mL streptomycin sulfate, 2 mM glutamine, 0.2% glucose, and 10 μg/mL bovine insulin (Calbiochem), with the final pH adjusted to 7.5. […] Cells are cultured at 20°C in ambient atmosphere.
Testosterone metabolites were identified and quantitated by HPLC. […] The supernatant was then injected into the HPLC.

Where [6] appears, read: zebrafish, 15 mg/kg intraperitoneally, single dose, 48 hr.

On to `C[C@H](CCCC(CO)COS(=O)(=O)O)[C@H]1CC[C@H]2[C@@H]3[C@H](O)C[C@H]4C[C@H](O)CC[C@]4(C)[C@H]3C[C@H](O)[C@]12C` (stereo partly drawn) [5α-Cyprinol 27-sulfate], for which the “Mouse VDR EC50 ± SD” value in data set [1] was “No effect”. In data set [2] (setting [6]), the “liver transcription of β-actin” value is on record as 38.2 ± 20.7 arbitrary units. The “liver transcription of PXR” value in data set [3] (setting [6]) is listed as 1.50 ± 0.67 arbitrary units normalized to β-actin. Also, in data set [4] (setting [6]), the “liver transcription of CYP3C1” value is given as 1.71 ± 0.50 arbitrary units normalized to β-actin. In addition, the “effect on 6β- and 12α-hydroxylation of testosterone” value in data set [5] is “neither activity was substantially increased relative to vehicle control”.
For `C[C@H](CCCC(CO)CO)[C@H]1CC[C@H]2[C@@H]3[C@H](O)C[C@H]4C[C@H](O)CC[C@]4(C)[C@H]3C[C@H](O)[C@]12C` [5α-Cyprinol, 5α-cholestan-3α,7α,12α,26,27-pentol], the “Mouse VDR EC50 ± SD” value in data set [1] was “No effect”. Moreover, the “liver transcription of β-actin” value in data set [2] (ip, 15 mg/kg, 48 h) was 44.7 ± 19.6 arbitrary units. Further, the “liver transcription of PXR” value in data set [3] (ip, 15 mg/kg, 48 h) is 0.58 ± 0.33 arbitrary units normalized to β-actin. For the same compound, in data set [4] (ip, 15 mg/kg, 48 h), the “liver transcription of CYP3C1” value was 1.33 ± 0.33 arbitrary units normalized to β-actin. In addition, the “effect on 6β- and 12α-hydroxylation of testosterone” value in data set [5] is listed as “neither activity was substantially increased relative to vehicle control”.
